From patent publication US20110130466A1 (priority 2009, published 2011)
Read-outs that look alike come from different tables or passages of the source.

What was measured:
[1] = system: PSP patients; conditions: patient 5, after 6 months of treatment with rasagiline (FIG. 2)
Description: (§1) The following clinical factors were analyzed: • 1. Patients and relatives received a protocol to document the frequency of falls. • 2. 12 of the patients were analyzed using posturographic measurements. • 3. Depression was evaluated using clinical criteria (DSM-IV). • 4. Eye movements were orthoptically evaluated (in some cases an electronystagmogram was performed). • 5. Dysarthria was investigated using the Bogenhausener dysarthria scale (BoDys) (ranges from 4=normal until 0=anarthria). • 6. Dysphagia was clinically documented and the introduction of a percutaneous feeding tube (PEG) was recorded. • 7. Incidence of pneumonia was recorded. • 8. Impulse control disorder and hallucinations were recorded. • 9. Possible side effects were recorded. • 10.

[2] = system: PSP patients; conditions: for dysphagia, need for a PEG: PSP patients without PEG at initiation, observation phase; for frequency of falls, MW (mean): mean of documented PSP patients, baseline 23.059
Description: Eight men and nine women were treated.
as §1

[3] = system: patients with PSP; conditions: 1 mg/day
Description: A clinical trial is performed according to the following guidelines: [table]

[4] = system: apoptotic cell death initiated by mitochondria; conditions: cell culture, Youdim et al. 2001; Akao et al. 2002; cited from earlier work
[5] = system: Bcl-2 and Bcl-xL expression; conditions: parallel to downregulation of pro-apoptotic Bad and Bax; Youdim et al. 2003; cited from earlier work
[6] = system: animal models of closed head trauma; conditions: global focal ischemia, MPTP-induced neurotoxicity, ALS transgenic model, 6-OHDA model; cited from earlier work
[7] = PSP patients, rasagiline 1 mg/day

## C#CCN[C@@H]1CCc2ccccc21 [rasagiline, R(+)-N-propargyl-1-aminoindan]
[1]
  posturographic measurement, before vs after treatment: shows an improvement
[2]; 10 patients, during observation time, from a mean of 2.5±0.5, 4=normal, 0=anarthria
  dysarthria, mean on the BoDys scale: 2.7±0.5
[2]; 17 PSP patients, patients 9 and 4, both after treatment had ended
  deaths during the observation time: Two patients died
[2]
  dysphagia, need for a PEG: none of the other patients required a PEG
[2]; listed as Rasagiline
  dysphagia, need for a PEG: effective in improving or slowing progression of dysphagia
[2]; [7]
  period of treatment in which the reduction of the frequency of falls mainly took place: ≤ 7 months
  postural instability / number of falls (in words): improvement in postural instability was evident within the first 7 months
[2]; PSP patients, rasagiline 1 mg/day, listed as Rasagiline
  postural instability / number of falls (in words): effective in reducing the number of falls
[2]; 1 Month of rasagiline 1 mg/day
  frequency of falls, MW (mean): 19.824 falls/week
[2]; 2 Months of rasagiline 1 mg/day
  frequency of falls, MW (mean): 20.692 falls/week
[2]; 3 Months of rasagiline 1 mg/day
  frequency of falls, MW (mean): 20.833 falls/week
[2]; 4 Months of rasagiline 1 mg/day
  frequency of falls, MW (mean): 20.667 falls/week
[2]; 5 Months of rasagiline 1 mg/day
  frequency of falls, MW (mean): 20.917 falls/week
[2]; 6 Months of rasagiline 1 mg/day
  frequency of falls, MW (mean): 19.923 falls/week
[2]; 7 Months of rasagiline 1 mg/day
  frequency of falls, MW (mean): 21.917 falls/week
[2]; 8 Months of rasagiline 1 mg/day
  frequency of falls, MW (mean): 23.5 falls/week
[2]; 9 Months of rasagiline 1 mg/day
  frequency of falls, MW (mean): 22.818 falls/week
[2]; 10 Months of rasagiline 1 mg/day
  frequency of falls, MW (mean): 25.1 falls/week
[2]; 11 Months of rasagiline 1 mg/day
  frequency of falls, MW (mean): 25.889 falls/week
[2]; 12 Months of rasagiline 1 mg/day
  frequency of falls, MW (mean): 24.6 falls/week
[2]; one patient with impulse control disorder at initiation
  impulse control disorder: not influenced by treatment with rasagiline
[2]; patients 9, 4 and 12
  treating physician's assessment of deaths and intracranial haemorrhage after fall: not related to rasagiline
[2]; rasagiline 1 mg/day
  effect on eye movements: No effect
[2]; rasagiline 1 mg/day, 12 months observation, listed as Rasagiline
  depression during treatment: effective in reducing or eliminating depression
[2]; three patients with side effects
  reversibility of side effects after termination: completely reversible
[3]; 1 year, vs reported mean yearly increase of 9.7
  reduction of the reported deterioration (PSPRS): 33%
[3]; posturographic measurement
  safety, gait disturbances and postural stability: safe and effective in reducing gait disturbances and in enhancing postural stability
[4]
  suppression of apoptotic cell death: potently suppresses apoptotic cell death
[5]
  expression of anti-apoptotic Bcl-2 and Bcl-xL: induces increase
[6]
  neuroprotection: Neuroprotection by rasagiline was achieved
